In ChEMBL document CHEMBL1154470, “Synthesis and antimicrobial activities of a new series of 4-S-[4(1)-amino-5(1)-oxo-6(1)-substituted benzyl-4(1),5(1)-dihydro-1(1),2(1),4(1)-triazin-3-yl]mercaptoacetyl-3-arylsydnones” (2008):
Converted amounts (≈) assume the structure as drawn.

What was measured:
Assay type in all cases: functional
Bacillus subtilis = assay: Antibacterial activity against Bacillus subtilis by serial dilution method
Escherichia coli = assay: Antibacterial activity against Escherichia coli ATCC 25922 by serial dilution method
Staphylococcus aureus = assay: Antibacterial activity against Staphylococcus aureus ATCC 25923 by serial dilution method
Pseudomonas aeruginosa = assay: Antibacterial activity against Pseudomonas aeruginosa ATCC 27853 by serial dilution method
Candida albicans = assay: Antifungal activity against Candida albicans NCIM No. 3100 by serial dilution method

| SMILES | MIC (Bacillus subtilis) | MIC (Escherichia coli) | MIC (Staphylococcus aureus) | MIC (Pseudomonas aeruginosa) | MIC (Candida albicans) |
| --- | --- | --- | --- | --- | --- |
| COc1ccc(-[n+]2noc([O-])c2C(=O)CSc2nnc(Cc3ccccc3)c(=O)n2N)cc1 | 0.25 µg/mL (≈ 0.536 µM) | 0.25 µg/mL (≈ 0.536 µM) | 0.25 µg/mL (≈ 0.536 µM) | 0.25 µg/mL (≈ 0.536 µM) | 0.25 µg/mL (≈ 0.536 µM) |
| Cc1ccc(-[n+]2noc([O-])c2C(=O)CSc2nnc(Cc3ccccc3)c(=O)n2N)cc1 | 0.25 µg/mL (≈ 0.555 µM) | 0.25 µg/mL (≈ 0.555 µM) | 0.25 µg/mL (≈ 0.555 µM) | 0.25 µg/mL (≈ 0.555 µM) | 0.25 µg/mL (≈ 0.555 µM) |
| Cc1ccc(-[n+]2noc([O-])c2C(=O)CSc2nnc(Cc3ccc(Br)cc3)c(=O)n2N)cc1 | 0.25 µg/mL (≈ 0.472 µM) | 0.25 µg/mL (≈ 0.472 µM) | 0.25 µg/mL (≈ 0.472 µM) | 0.25 µg/mL (≈ 0.472 µM) | 0.25 µg/mL (≈ 0.472 µM) |
| Cc1ccc(-[n+]2noc([O-])c2C(=O)CSc2nnc(Cc3ccc(Cl)cc3)c(=O)n2N)cc1 | 0.25 µg/mL (≈ 0.516 µM) | 0.25 µg/mL (≈ 0.516 µM) | 0.25 µg/mL (≈ 0.516 µM) | 0.25 µg/mL (≈ 0.516 µM) | 0.25 µg/mL (≈ 0.516 µM) |
| Nn1c(SCC(=O)c2c([O-])on[n+]2-c2ccccc2)nnc(Cc2ccc(Br)cc2)c1=O | 0.25 µg/mL (≈ 0.485 µM) | 0.25 µg/mL (≈ 0.485 µM) | 0.25 µg/mL (≈ 0.485 µM) | 0.25 µg/mL (≈ 0.485 µM) | 0.25 µg/mL (≈ 0.485 µM) |
| Nn1c(SCC(=O)c2c([O-])on[n+]2-c2ccccc2)nnc(Cc2ccc3c(c2)OCO3)c1=O | 0.25 µg/mL (≈ 0.52 µM) | 0.25 µg/mL (≈ 0.52 µM) | 0.25 µg/mL (≈ 0.52 µM) | 0.25 µg/mL (≈ 0.52 µM) | 0.25 µg/mL (≈ 0.52 µM) |
| Nn1c(SCC(=O)c2c([O-])on[n+]2-c2ccccc2)nnc(Cc2ccc(Cl)cc2)c1=O | 0.25 µg/mL (≈ 0.531 µM) | 0.25 µg/mL (≈ 0.531 µM) | 0.25 µg/mL (≈ 0.531 µM) | 0.25 µg/mL (≈ 0.531 µM) | 0.25 µg/mL (≈ 0.531 µM) |
| COc1ccc(-[n+]2noc([O-])c2C(=O)CSc2nnc(Cc3ccc(Br)cc3)c(=O)n2N)cc1 | 0.25 µg/mL (≈ 0.458 µM) | 0.25 µg/mL (≈ 0.458 µM) | 0.25 µg/mL (≈ 0.458 µM) | 0.25 µg/mL (≈ 0.458 µM) | 0.25 µg/mL (≈ 0.458 µM) |
| Cc1ccc(-[n+]2noc([O-])c2C(=O)CSc2nnc(Cc3ccc4c(c3)OCO4)c(=O)n2N)cc1 | 0.25 µg/mL (≈ 0.506 µM) | 0.25 µg/mL (≈ 0.506 µM) | 0.25 µg/mL (≈ 0.506 µM) | 0.25 µg/mL (≈ 0.506 µM) | 0.25 µg/mL (≈ 0.506 µM) |
| COc1ccc(-[n+]2noc([O-])c2C(=O)CSc2nnc(Cc3ccc(Cl)cc3)c(=O)n2N)cc1 | 0.25 µg/mL (≈ 0.499 µM) | 0.25 µg/mL (≈ 0.499 µM) | 0.25 µg/mL (≈ 0.499 µM) | 0.25 µg/mL (≈ 0.499 µM) | 0.25 µg/mL (≈ 0.499 µM) |
| Nn1c(SCC(=O)c2c([O-])on[n+]2-c2ccccc2)nnc(Cc2ccccc2)c1=O | 0.25 µg/mL (≈ 0.573 µM) | 0.25 µg/mL (≈ 0.573 µM) | 0.25 µg/mL (≈ 0.573 µM) | 0.25 µg/mL (≈ 0.573 µM) | 0.25 µg/mL (≈ 0.573 µM) |
| Nn1c(SCC(=O)c2c([O-])on[n+]2-c2ccccc2)nnc(Cc2ccc([N+](=O)[O-])cc2)c1=O | 0.25 µg/mL (≈ 0.519 µM) | 0.25 µg/mL (≈ 0.519 µM) | 0.5 µg/mL (≈ 1.04 µM) | 0.25 µg/mL (≈ 0.519 µM) | 0.25 µg/mL (≈ 0.519 µM) |
| OC(Cn1cncn1)(Cn1cncn1)c1ccc(F)cc1F [FLUCONAZOLE] |  |  |  |  | 0.25 µg/mL (≈ 0.816 µM) |
| NC(=O)N/N=C/c1ccc([N+](=O)[O-])o1 [NITROFURAZONE] | 0.5 µg/mL (≈ 2.52 µM) | 0.25 µg/mL (≈ 1.26 µM) | 0.5 µg/mL (≈ 2.52 µM) | 0.5 µg/mL (≈ 2.52 µM) |  |
